Patent US8148407B2, “Compounds derived from 5-thioxylose and their use in therapeutics” (Laboratories Fournier S.A., priority 2005, dated 2012)

| Compound | melting point [°C] |
| --- | --- |
| Cc1ccc(-c2cncc(O[C@@H]3SC[C@@H](O)[C@H](O)[C@H]3O)c2)cc1C [Example 109, 5-(3,4-dimethylphenyl)-3-pyridinyl 5-thio-β-D-xylopyranoside] | 184 |
| N#Cc1ccc(-c2cncc(O[C@@H]3SC[C@@H](O)[C@H](O)[C@H]3O)c2)cc1Cl | 202 to 204 |
| N#Cc1cc(-c2cncc(O[C@@H]3SC[C@@H](O)[C@H](O)[C@H]3O)c2)ccc1F [Example 63, 5-(3-cyano-4-fluorophenyl)-3-pyridinyl 5-thio-β-D-xylopyranoside] | 197 |
| COc1ccc(-c2ccc(O[C@@H]3SC[C@@H](O)[C@H](O)[C@H]3O)cn2)cc1 [Example 93, 6-(4-methoxyphenyl)-3-pyridinyl 5-thio-β-D-xylopyranoside] | 164 |
| Cc1ccc(-c2cncc(O[C@@H]3SC[C@@H](O)[C@H](O)[C@H]3O)c2)cc1 [Example 52, 5-(4-methylphenyl)-3-pyridinyl 5-thio-β-D-xylopyranoside] | 228 |
| COc1c(C)cc(-c2cncc(O[C@@H]3SC[C@@H](O)[C@H](O)[C@H]3O)c2)cc1C [Example 83, 5-(3,5-dimethyl-4-methoxyphenyl)-3-pyridinyl 5-thio-β-D-xylopyranoside] | 173 |
| CN(C)c1ccc(-c2cncc(O[C@@H]3SC[C@@H](O)[C@H](O)[C@H]3O)c2)cc1 [Example 50, 5-[4-(dimethylamino)phenyl]-3-pyridinyl 5-thio-β-D-xylopyranoside] | 240 |
| CC(C)Oc1ccc(-c2cncc(O[C@@H]3SC[C@@H](O)[C@H](O)[C@H]3O)c2)cc1 [Example 69, 5-[4-(1-methylethoxy)phenyl]-3-pyridinyl 5-thio-β-D-xylopyranoside] | 158 |
| O[C@@H]1[C@@H](O)[C@H](Oc2cncc(-c3ccc(F)cc3F)c2)SC[C@H]1O [Example 85, 5-(2,4-difluorophenyl)-3-pyridinyl 5-thio-β-D-xylopyranoside] | 221 |
| O[C@@H]1[C@@H](O)[C@H](Oc2cccnc2-c2ccc(F)cc2)SC[C@H]1O [Example 73, 2-(4-fluorophenyl)-3-pyridinyl 5-thio-β-D-xylopyranoside] | 110 |
| COc1ccc(-c2nccc(C)c2O[C@@H]2SC[C@@H](O)[C@H](O)[C@H]2O)cc1 [Example 75, 2-(4-methoxyphenyl)-4-methyl-3-pyridinyl 5-thio-β-D-xylopyranoside] | 101 |
| COc1cccc(-c2cncc(O[C@@H]3SC[C@@H](O)[C@H](O)[C@H]3O)c2)c1 [Example 67, 5-(3-methoxyphenyl)-3-pyridinyl 5-thio-β-D-xylopyranoside] | 200 |
| COc1cc(F)c(-c2cncc(O[C@@H]3SC[C@@H](O)[C@H](O)[C@H]3O)c2)c(F)c1 [Example 81, 5-(2,6-difluoro-4-methoxyphenyl)-3-pyridinyl 5-thio-β-D-xylopyranoside] | 200 |
| COc1ccc(-c2cc(O[C@@H]3SC[C@@H](O)[C@H](O)[C@H]3O)ccn2)cc1 [Example 77, 2-(4-methoxyphenyl)-4-pyridinyl 5-thio-β-D-xylopyranoside] | 150 to 154 |
| COc1ccc(-c2cncc(O[C@@H]3SC[C@@H](O)[C@H](O)[C@H]3O)c2)c(C)c1 [Example 105, 5-(4-methoxy-2-methylphenyl)-3-pyridinyl 5-thio-β-D-xylopyranoside] | 231 |
| N#Cc1ccc(-c2ccncc2O[C@@H]2SC[C@@H](O)[C@H](O)[C@H]2O)cc1 [Example 28, 4-(4-cyanophenyl)-3-pyridinyl 5-thio-β-D-xylopyranoside] | 238 |
| O[C@@H]1[C@@H](O)[C@H](Oc2cnccc2-c2ccc(F)cc2)SC[C@H]1O [Example 57, 4-(4-fluorophenyl)-3-pyridinyl 5-thio-β-D-xylopyranoside] | 219 |
| COc1cc(F)ccc1-c1cncc(O[C@@H]2SC[C@@H](O)[C@H](O)[C@H]2O)c1 [Example 87, 5-(4-fluoro-2-methoxyphenyl)-3-pyridinyl 5-thio-β-D-xylopyranoside] | 218 to 228 |
| O[C@@H]1[C@@H](O)[C@H](Oc2cncc(-c3ccc(N4CCCCC4)cc3)c2)SC[C@H]1O [Example 48, 5-[4-(1-piperidinyl)phenyl]-3-pyridinyl 5-thio-β-D-xylopyranoside] | 196 |
| O[C@@H]1[C@@H](O)[C@H](Oc2cncc(Oc3ccccc3)c2)SC[C@H]1O [Example 26, 5-phenoxy-3-pyridinyl 5-thio-β-D-xylopyranoside] | 226 |
| COc1ccc(-c2cncc(O[C@@H]3SC[C@@H](O)[C@H](O)[C@H]3O)c2)cc1OC [Example 71, 5-(3,4-dimethoxyphenyl)-3-pyridinyl 5-thio-β-D-xylopyranoside] | 211 |
| O[C@@H]1[C@@H](O)[C@H](Oc2cccnc2-c2ccccc2)SC[C@H]1O [Example 24, 2-phenyl-3-pyridinyl 5-thio-β-D-xylopyranoside] | 89 to 108 |
| COc1ccc(-c2cncc(O[C@@H]3SC[C@@H](O)[C@H](O)[C@H]3O)c2)cc1Cl [Example 65, 5-(3-chloro-4-methoxyphenyl)-3-pyridinyl 5-thio-β-D-xylopyranoside] | 165 |

Now from value to compound:

| melting point [°C] | Compound |
| --- | --- |
| 198 to 200 | N#Cc1cc(F)ccc1-c1cncc(O[C@@H]2SC[C@@H](O)[C@H](O)[C@H]2O)c1 [Example 148, 5-(2-cyano-4-fluorophenyl)-3-pyridinyl 5-thio-β-D-xylopyranoside] |
| 202 to 206 | Cc1cc(C#N)ccc1-c1cncc(O[C@@H]2SC[C@@H](O)[C@H](O)[C@H]2O)c1 [Example 154, 5-(4-cyano-2-methylphenyl)-3-pyridinyl 5-thio-β-D-xylopyranoside] |
| 157 | CC(=O)O[C@@H]1[C@@H](OC(C)=O)[C@H](OC(C)=O)CS[C@H]1Oc1cncc(C(C)=O)c1 [Example 118, 5-acetyl-3-pyridinyl 2,3,4-tri-O-acetyl-5-thio-β-D-xylopyranoside] |
| 183 | CS(=O)(=O)c1cncc(O[C@@H]2SC[C@@H](O)[C@H](O)[C@H]2O)c1 [Example 115, 5-methylsulfonyl-3-pyridinyl 5-thio-β-D-xylopyranoside] |
| 143 | CCN(CC)C(=O)c1cncc(O[C@@H]2SC[C@@H](O)[C@H](O)[C@H]2O)c1 [Example 160, 5-[(N,N-diethylamino)carbonyl]-3-pyridinyl 5-thio-β-D-xylopyranoside] |
| 228 | O[C@@H]1[C@@H](O)[C@H](Oc2cncc(-c3c(F)cc(F)cc3F)c2)SC[C@H]1O [Example 144, 5-(2,4,6-trifluorophenyl)-3-pyridinyl 5-thio-β-D-xylopyranoside] |
| 89 to 91 | O=C(NCc1ccccc1)c1ccc(O[C@@H]2SC[C@@H](O)[C@H](O)[C@H]2O)cn1 [Example 117, 6-{[(phenylmethyl)amino]carbonyl}-3-pyridinyl 5-thio-β-D-xylopyranoside] |
| 192 | N#Cc1ccc(-c2cncc(O[C@@H]3SC[C@@H](O)[C@H](O)[C@H]3O)c2)cc1C#N [Example 156, 5-(3,4-dicyanophenyl)-3-pyridinyl 5-thio-β-D-xylopyranoside] |
| 203 | COc1c(F)cc(-c2cncc(O[C@@H]3SC[C@@H](O)[C@H](O)[C@H]3O)c2)cc1F [Example 146, 5-(3,5-difluoro-4-methoxyphenyl)-3-pyridinyl 5-thio-β-D-xylopyranoside] |
| 184 to 186 | O[C@@H]1[C@@H](O)[C@H](Oc2ccc(-c3ccc(OC(F)(F)F)cc3)nc2)SC[C@H]1O [Example 125, 6-[4-(trifluoromethoxy)phenyl]-3-pyridinyl 5-thio-β-D-xylopyranoside] |
| 180 to 183 | O[C@@H]1[C@@H](O)[C@H](Oc2ccc(-c3ccc(F)cc3)nc2)SC[C@H]1O [Example 129, 6-(4-fluorophenyl)-3-pyridinyl 5-thio-β-D-xylopyranoside] |
| 86 | O=S(=O)(c1ccccc1)c1cncc(O[C@@H]2SC[C@@H](O)[C@H](O)[C@H]2O)c1 [Example 140, 5-(phenylsulfonyl)-3-pyridinyl 5-thio-β-D-xylopyranoside] |
| 114 to 119 | O[C@@H]1[C@@H](O)[C@H](Oc2cccnc2-c2ccc(OC(F)(F)F)cc2)SC[C@H]1O [Example 127, 2-[4-(trifluoromethoxy)phenyl]-3-pyridinyl 5-thio-β-D-xylopyranoside] |
| 198 to 200 | Cc1cc(-c2cncc(O[C@@H]3SC[C@@H](O)[C@H](O)[C@H]3O)c2)ccc1C#N [Example 150, 5-(4-cyano-3-methylphenyl)-3-pyridinyl 5-thio-β-D-xylopyranoside] |
| 147 | Cc1cc(F)ccc1-c1cc(O[C@@H]2SC[C@@H](O)[C@H](O)[C@H]2O)ccn1 [Example 162, 2-(4-fluoro-2-methylphenyl)-4-pyridinyl 5-thio-β-D-xylopyranoside] |
| 93 to 96 | O=S(=O)(c1ccc(F)cc1)c1cncc(O[C@@H]2SC[C@@H](O)[C@H](O)[C@H]2O)c1 [Example 142, 5-[(4-fluorophenyl)sulfonyl]-3-pyridinyl 5-thio-β-D-xylopyranoside] |
| 128 to 133 | CC(=O)c1cccc(-c2ncccc2O[C@@H]2SC[C@@H](O)[C@H](O)[C@H]2O)c1 [Example 128, 2-(3-acetylphenyl)-3-pyridinyl 5-thio-β-D-xylopyranoside] |
| 193 | CC(=O)O[C@@H]1[C@@H](OC(C)=O)[C@H](OC(C)=O)CS[C@H]1Oc1cncc(S(C)(=O)=O)c1 [Example 114, 5-methylsulfonyl-3-pyridinyl 2,3,4-tri-O-acetyl-5-thio-β-D-xylopyranoside] |
| 218 | COc1ccc(-c2cncc(O[C@@H]3SC[C@@H](O)[C@H](O)[C@H]3O)c2)c(Cl)c1 [Example 113, 5-(2-chloro-4-methoxyphenyl)-3-pyridinyl 5-thio-β-D-xylopyranoside] |
| 159 to 163 | CC(=O)c1cccc(-c2ccc(O[C@@H]3SC[C@@H](O)[C@H](O)[C@H]3O)cn2)c1 [Example 124, 6-(3-acetylphenyl)-3-pyridinyl 5-thio-β-D-xylopyranoside] |
